Laboratory results published in US11229618B2 (Amarin Pharmaceuticals Ireland Limited, priority 2012, dated 2022).

Experiment: ANCHOR: plasma fatty acid concentrations, ratios and class proportions (GC/FID)
Assay type: in vivo, human
Details: for AA plasma Placebo-adjusted percent change from baseline / DHA plasma Placebo-adjusted percent change from baseline / DPAn-3 plasma Placebo-adjusted percent change from baseline / Linoleic plasma Placebo-adjusted percent change from baseline / Oleic plasma Placebo-adjusted percent change from baseline / Palmitic plasma Placebo-adjusted percent change from baseline / Ratio of AA/EPA plasma Placebo-adjusted percent change from baseline / Ratio of total ω-3/total ω-6 plasma Placebo-adjusted percent change from baseline / Stearic plasma Placebo-adjusted percent change from baseline: week 12, LS mean; for Monounsaturated, proportion of total fatty acids, plasma, Change from baseline / Saturated, proportion of total fatty acids, plasma, Change from baseline / Total ω-3, proportion of total fatty acids, plasma, Change from baseline / Total ω-6, proportion of total fatty acids, plasma, Change from baseline: LS mean (SE); for AA plasma Change from baseline / DHA plasma Change from baseline / DPAn-3 plasma Change from baseline / Linoleic plasma Change from baseline / Oleic plasma Change from baseline / Palmitic plasma Change from baseline / Ratio of AA/EPA plasma Change from baseline / Ratio of total ω-3/total ω-6 plasma Change from baseline / Stearic plasma Change from baseline: baseline to week 12, LS mean; for AA plasma End-of-treatment / DHA plasma End-of-treatment / DPAn-3 plasma End-of-treatment / Linoleic plasma End-of-treatment / Oleic plasma End-of-treatment / Palmitic plasma End-of-treatment / Ratio of AA/EPA plasma End-of-treatment / Ratio of total ω-3/total ω-6 plasma End-of-treatment / Stearic plasma End-of-treatment: week 12, mean; for Monounsaturated, proportion of total fatty acids, plasma, End-of-treatment / Saturated, proportion of total fatty acids, plasma, End-of-treatment / Total ω-3, proportion of total fatty acids, plasma, End-of-treatment / Total ω-6, proportion of total fatty acids, plasma, End-of-treatment: week 12, mean (SD)
Procedure: A multi-center, placebo-controlled, randomized, double-blind, 12-week study was performed to evaluate the efficacy and safety of >96% E-EPA in patients with fasting triglyceride levels≥200 mg/dl and <500 mg/dl despite statin therapy (the mean of two qualifying entry values needed to be ≥185 mg/dl and at least one of the values needed to be ≥200 mg/dl). The primary objective of the study was to determine the efficacy of >96% E-EPA 2 g daily and 4 g daily, compared to placebo, in lowering fasting TG levels in patients with high risk for cardiovascular disease and with fasting TG levels≥200 mg/dL and <500 mg/dL, despite treatment to LDL-C goal on statin therapy.
During the double-blind treatment period, patients were to take 2 capsules (>96% E-EPA or matching placebo) in the morning and 2 capsules in the evening for a total of 4 capsules per day. • Patients in the >96% E-EPA 2 g/day treatment group received 1>96% E-EPA 1 g capsule and 1 matching placebo capsule in the morning and in the evening. • Patients in the >96% E-EPA 4 g/day treatment group received 2>96% E-EPA 1 g capsules in the morning and evening. • Patients in the placebo group received 2 matching placebo capsules in the morning and evening.
Lipids were extracted from plasma and red blood cell (“RBC”) suspensions and converted into fatty acid methyl esters for analysis using a standard validated gas chromatography/flame ionization detection method. Fatty acid parameters were compared between EPA treatment groups and placebo using an ANCOVA model with treatment, gender, type of statin therapy, and presence of diabetes as factors, and the baseline parameter value as a covariate. LSMs, SEs, and 2-tailed 95% confidence intervals for each treatment group and for each comparison were determined.
The monounsaturated fatty acid group included myristoleic, palmitoleic, cis-vaccenic, oleic, gondoic/gadoleic, erucic and nervonic acids. The saturated fatty acid group included myristic, palmitic, stearic, arachidic, behenic and lignoceric acids. The “total ω-3” group included α-linolenic, stearidonic, eicosatrienoic, ω-3 arachidonic, eicosapentaenoic, ω-3 docosapentaenoic and docosahecaenoic acids. The “total ω-6” group included linoleic, γ-linolenic, eicosadienoic, dihomo-γ-linolenic, ω-6 arachidonic, adrenic, and ω-6 docosapentaenoic acids. The “total fatty acid” group represented the sum of the monounsaturated, saturated, total ω-3 and total ω-6 groups.

CC/C=C\C/C=C\C/C=C\C/C=C\C/C=C\CCCC(=O)OCC [IPE, all-cis eicosa-5,8,11,14,17-pentaenoic acid ethyl ester]
Monounsaturated, proportion of total fatty acids, plasma, Placebo-adjusted percent change from baseline (2 g/day vs placebo): −1.4%
Saturated, proportion of total fatty acids, plasma, Placebo-adjusted percent change from baseline (2 g/day vs placebo): −0.2%
Total ω-3, proportion of total fatty acids, plasma, Placebo-adjusted percent change from baseline (2 g/day vs placebo): 60.3%
Total ω-6, proportion of total fatty acids, plasma, Placebo-adjusted percent change from baseline (2 g/day vs placebo): −4.6%
AA plasma Placebo-adjusted percent change from baseline (2 g/day vs placebo): −19.1%
DHA plasma Placebo-adjusted percent change from baseline (2 g/day vs placebo): −0.7%
DPAn-3 plasma Placebo-adjusted percent change from baseline (2 g/day vs placebo): 88.9%
Linoleic plasma Placebo-adjusted percent change from baseline (2 g/day vs placebo): −14.5%
Oleic plasma Placebo-adjusted percent change from baseline (2 g/day vs placebo): −14.3%
Palmitic plasma Placebo-adjusted percent change from baseline (2 g/day vs placebo): −12.1%
Ratio of AA/EPA plasma Placebo-adjusted percent change from baseline (2 g/day vs placebo): −75.4%
Ratio of total ω-3/total ω-6 plasma Placebo-adjusted percent change from baseline (2 g/day vs placebo): 64.3%
Stearic plasma Placebo-adjusted percent change from baseline (2 g/day vs placebo): −12.6%
Monounsaturated, proportion of total fatty acids, plasma, Change from baseline (2 g/day): −0.7 (0.4) mol %
Saturated, proportion of total fatty acids, plasma, Change from baseline (2 g/day): −0.7 (0.3) mol %
Total ω-3, proportion of total fatty acids, plasma, Change from baseline (2 g/day): 2.1 (0.2) mol %
Total ω-6, proportion of total fatty acids, plasma, Change from baseline (2 g/day): −0.8 (0.5) mol %
AA plasma Change from baseline (2 g/day): −31.1
DHA plasma Change from baseline (2 g/day): 5.0
DPAn-3 plasma Change from baseline (2 g/day): 22.4
Linoleic plasma Change from baseline (2 g/day): −35.0
Oleic plasma Change from baseline (2 g/day): −61.7
Palmitic plasma Change from baseline (2 g/day): −50.1
Ratio of AA/EPA plasma Change from baseline (2 g/day): −11.2
Ratio of total ω-3/total ω-6 plasma Change from baseline (2 g/day): 0.1
Stearic plasma Change from baseline (2 g/day): −19.6
AA plasma End-of-treatment (2 g/day): 266.7
DHA plasma End-of-treatment (2 g/day): 62.7
DPAn-3 plasma End-of-treatment (2 g/day): 44.3
Linoleic plasma End-of-treatment (2 g/day): 1082
Oleic plasma End-of-treatment (2 g/day): 972.1
Palmitic plasma End-of-treatment (2 g/day): 1004
Ratio of AA/EPA plasma End-of-treatment (2 g/day): 3.4
Ratio of total ω-3/total ω-6 plasma End-of-treatment (2 g/day): 0.2
Stearic plasma End-of-treatment (2 g/day): 276.2
Monounsaturated, proportion of total fatty acids, plasma, End-of-treatment (2 g/day): 28.0 (2.8) mol %
Saturated, proportion of total fatty acids, plasma, End-of-treatment (2 g/day): 33.6 (2.2) mol %
Total ω-3, proportion of total fatty acids, plasma, End-of-treatment (2 g/day): 5.1 (1.2) mol %
Total ω-6, proportion of total fatty acids, plasma, End-of-treatment (2 g/day): 33.3 (3.4) mol %
Monounsaturated, proportion of total fatty acids, plasma, Placebo-adjusted percent change from baseline (4 g/day vs placebo): −5.8%
Saturated, proportion of total fatty acids, plasma, Placebo-adjusted percent change from baseline (4 g/day vs placebo): 0.4%
Total ω-3, proportion of total fatty acids, plasma, Placebo-adjusted percent change from baseline (4 g/day vs placebo): 142.2%
Total ω-6, proportion of total fatty acids, plasma, Placebo-adjusted percent change from baseline (4 g/day vs placebo): −7.4%
AA plasma Placebo-adjusted percent change from baseline (4 g/day vs placebo): −30.7%
DHA plasma Placebo-adjusted percent change from baseline (4 g/day vs placebo): −2.9%
DPAn-3 plasma Placebo-adjusted percent change from baseline (4 g/day vs placebo): 143.6%
Linoleic plasma Placebo-adjusted percent change from baseline (4 g/day vs placebo): −24.8%
Oleic plasma Placebo-adjusted percent change from baseline (4 g/day vs placebo): −30.1%
Palmitic plasma Placebo-adjusted percent change from baseline (4 g/day vs placebo): −23.3%
Ratio of AA/EPA plasma Placebo-adjusted percent change from baseline (4 g/day vs placebo): −90.3%
Ratio of total ω-3/total ω-6 plasma Placebo-adjusted percent change from baseline (4 g/day vs placebo): 165.9%
Stearic plasma Placebo-adjusted percent change from baseline (4 g/day vs placebo): −16.5%
Monounsaturated, proportion of total fatty acids, plasma, Change from baseline (4 g/day): −2.0 (0.4) mol %
Saturated, proportion of total fatty acids, plasma, Change from baseline (4 g/day): −0.5 (0.3) mol %
Total ω-3, proportion of total fatty acids, plasma, Change from baseline (4 g/day): 4.4 (0.2) mol %
Total ω-6, proportion of total fatty acids, plasma, Change from baseline (4 g/day): −1.8 (0.5) mol %
AA plasma Change from baseline (4 g/day): −60.1
DHA plasma Change from baseline (4 g/day): 2.3
DPAn-3 plasma Change from baseline (4 g/day): 31.8
Linoleic plasma Change from baseline (4 g/day): −152
Oleic plasma Change from baseline (4 g/day): −219
Palmitic plasma Change from baseline (4 g/day): −161
Ratio of AA/EPA plasma Change from baseline (4 g/day): −14.1
Ratio of total ω-3/total ω-6 plasma Change from baseline (4 g/day): 0.2
Stearic plasma Change from baseline (4 g/day): −31.2
AA plasma End-of-treatment (4 g/day): 222.8
DHA plasma End-of-treatment (4 g/day): 53.6
DPAn-3 plasma End-of-treatment (4 g/day): 50.2
Linoleic plasma End-of-treatment (4 g/day): 921.8
Oleic plasma End-of-treatment (4 g/day): 782.5
Palmitic plasma End-of-treatment (4 g/day): 843.8
Ratio of AA/EPA plasma End-of-treatment (4 g/day): 1.6
Ratio of total ω-3/total ω-6 plasma End-of-treatment (4 g/day): 0.2
Stearic plasma End-of-treatment (4 g/day): 253.4
Monounsaturated, proportion of total fatty acids, plasma, End-of-treatment (4 g/day): 26.7 (3.0) mol %
Saturated, proportion of total fatty acids, plasma, End-of-treatment (4 g/day): 33.6 (2.4) mol %
Total ω-3, proportion of total fatty acids, plasma, End-of-treatment (4 g/day): 7.1 (2.0) mol %
Total ω-6, proportion of total fatty acids, plasma, End-of-treatment (4 g/day): 32.6 (3.5) mol %
